Measured values from ChEMBL document CHEMBL1201862, “PubChem BioAssay data set” (2004).
The source made the active and inactive calls.

Tests used:
[1] = biological target: Lytic switch protein BZLF1 (Epstein-Barr virus (strain B95-8) (HHV-4) (Human herpesvirus 4), UniProt P03206); test: EBV ZTA inhibitors, dose response, counter-screen for EBNA-1 inhibitor project, biochemical, fluorescence polarization, Epstein-Barr virus, 1536-well (AID 2377); set-up: species or system human gammaherpesvirus 4;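 also: fluorescence polarization of Cy5-labelled ZRE DNA probe bound by purified Zta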
Sequence of Lytic switch protein BZLF1 (P03206 whole entry): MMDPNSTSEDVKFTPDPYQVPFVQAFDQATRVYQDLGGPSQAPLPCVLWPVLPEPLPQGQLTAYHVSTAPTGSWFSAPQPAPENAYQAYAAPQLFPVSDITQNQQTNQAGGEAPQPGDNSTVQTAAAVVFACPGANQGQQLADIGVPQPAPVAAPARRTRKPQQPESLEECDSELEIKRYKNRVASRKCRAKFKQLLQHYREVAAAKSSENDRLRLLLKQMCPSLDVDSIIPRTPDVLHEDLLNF

[2] = biological target: Epstein-Barr nuclear antigen 1 (Epstein-Barr virus (strain B95-8) (HHV-4) (Human herpesvirus 4), UniProt P03211); test: EBNA-1 inhibitors, dose response, biochemical, fluorescence polarization, 1536-well (AID 2381); set-up: species or system human gammaherpesvirus 4;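 also: fluorescence polarization of a Cy5 DNA probe bound by EBNA-1 protein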
Sequence of Epstein-Barr nuclear antigen 1 (P03211 whole entry): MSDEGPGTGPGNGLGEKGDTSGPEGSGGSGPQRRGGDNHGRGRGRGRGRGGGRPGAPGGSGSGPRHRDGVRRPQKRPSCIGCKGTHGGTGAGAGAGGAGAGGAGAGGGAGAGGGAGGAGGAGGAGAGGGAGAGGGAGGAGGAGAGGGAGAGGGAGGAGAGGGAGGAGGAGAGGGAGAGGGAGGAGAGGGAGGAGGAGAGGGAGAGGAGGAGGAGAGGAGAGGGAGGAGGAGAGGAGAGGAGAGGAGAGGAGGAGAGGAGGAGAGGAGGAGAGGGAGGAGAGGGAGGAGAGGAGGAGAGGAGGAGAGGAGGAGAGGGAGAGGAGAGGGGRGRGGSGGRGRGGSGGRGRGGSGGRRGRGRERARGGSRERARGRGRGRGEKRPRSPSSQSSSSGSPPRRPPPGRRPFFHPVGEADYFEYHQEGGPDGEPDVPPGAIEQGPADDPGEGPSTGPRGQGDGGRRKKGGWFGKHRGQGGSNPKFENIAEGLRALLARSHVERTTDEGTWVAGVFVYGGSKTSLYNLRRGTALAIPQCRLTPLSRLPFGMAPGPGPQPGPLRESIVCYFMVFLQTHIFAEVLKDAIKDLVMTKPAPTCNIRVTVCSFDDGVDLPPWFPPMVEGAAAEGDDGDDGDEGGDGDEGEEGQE

Bcl-2-related protein A1 [3] = biological target: T1, Bcl-2-related protein A1 (Mus musculus, UniProt Q07440); test: Bfl-1 binding inhibitors, SAR follow-up, biochemical, fluorescence polarization (AID 1070)
T1 sequence (Q07440 whole entry): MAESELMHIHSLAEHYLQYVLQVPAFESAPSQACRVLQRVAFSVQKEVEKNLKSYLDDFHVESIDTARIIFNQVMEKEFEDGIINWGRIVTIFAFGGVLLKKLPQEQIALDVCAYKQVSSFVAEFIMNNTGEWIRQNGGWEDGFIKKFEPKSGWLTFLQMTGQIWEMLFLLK

[4] = biological target: Glyceraldehyde-3-phosphate dehydrogenase (Homo sapiens, UniProt P04406)
Sequence of Glyceraldehyde-3-phosphate dehydrogenase (P04406 whole entry): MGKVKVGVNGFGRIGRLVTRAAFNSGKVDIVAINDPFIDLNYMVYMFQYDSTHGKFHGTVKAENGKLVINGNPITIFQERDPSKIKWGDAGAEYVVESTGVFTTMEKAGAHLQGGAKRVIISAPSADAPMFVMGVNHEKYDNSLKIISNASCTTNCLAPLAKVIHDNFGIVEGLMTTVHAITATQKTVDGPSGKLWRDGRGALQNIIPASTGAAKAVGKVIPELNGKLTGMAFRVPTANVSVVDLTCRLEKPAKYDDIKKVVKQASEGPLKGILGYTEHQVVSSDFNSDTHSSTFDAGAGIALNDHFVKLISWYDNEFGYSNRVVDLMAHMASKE

Bcl-2-related protein A1 [5] = biological target: T1, Bcl-2-related protein A1; test: Bfl-1 inhibitors blocking BH3 peptide binding, confirmation, biochemical, TR-FRET, mouse Bfl-1 (AID 621);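 also: TR-FRET binding of GST-Bfl-1 to FITC-labelled Bid peptide via terbium antibody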
Coagulation factor XII = biological target: T2, Coagulation factor XII (Homo sapiens, UniProt P00748); assay type: functional;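 also: activated factor XIIa alpha cleaving a fluorogenic AMC peptide substrate; inhibitor potency from loss of enzyme activity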
T2 sequence (P00748 whole entry): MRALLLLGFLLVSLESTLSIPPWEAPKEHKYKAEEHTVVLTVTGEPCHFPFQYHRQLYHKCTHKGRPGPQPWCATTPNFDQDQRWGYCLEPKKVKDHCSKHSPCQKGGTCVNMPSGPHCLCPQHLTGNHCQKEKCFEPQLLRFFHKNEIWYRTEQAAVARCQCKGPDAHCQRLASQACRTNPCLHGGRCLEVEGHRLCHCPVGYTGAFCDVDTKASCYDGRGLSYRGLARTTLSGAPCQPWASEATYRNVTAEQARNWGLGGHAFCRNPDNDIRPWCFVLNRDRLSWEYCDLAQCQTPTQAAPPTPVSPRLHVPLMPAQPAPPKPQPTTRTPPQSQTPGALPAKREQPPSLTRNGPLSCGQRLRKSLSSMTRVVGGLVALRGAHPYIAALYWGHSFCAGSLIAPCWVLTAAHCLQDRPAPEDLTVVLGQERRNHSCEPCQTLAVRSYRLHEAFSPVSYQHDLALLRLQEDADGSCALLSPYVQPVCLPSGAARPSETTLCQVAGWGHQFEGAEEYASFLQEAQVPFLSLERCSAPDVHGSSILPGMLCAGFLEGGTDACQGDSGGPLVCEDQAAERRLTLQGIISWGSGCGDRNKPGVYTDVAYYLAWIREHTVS

[6] = inhibitors of SNCA 5'UTR-driven reporter translation, confirmation, H4 neuroglioma cells, luminescence (AID 1988); assay type: functional, cell-based
cells = assay type: functional, cell-based
[7] = tested on: Streptococcus sp. 'group A'; test: growth inhibition of control SK(-) GAS strain, dose response, counter-screen for streptokinase expression inhibitor project, luminescence, kanamycin, BacTiterGlo, confirmation (AID 1900); assay type: functional, organism-based
[8] = inhibitors of SNCA 5'UTR-driven translation, confirmation, luminescence, H4 neuroglioblastoma cells, dose confirmation (AID 2454); assay type: functional, cell-based;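 also: H4 neuroglioblastoma cells carrying an alpha-synuclein 5'UTR luciferase reporter; potency for inhibition of the luciferase signal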
[9] = luciferase reporter signal reduction – luminescence, H4-C neuroglioblastoma cells, dose response (AID 2458); assay type: functional, cell-based;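 also: H4 neuroglioblastoma cells stably carrying a luciferase reporter gene fusion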
[10] = Luminescence Cell-Based Dose Response HTS to Identify Inhibitors of 5'UTR Stem-Loop Driven Prion Protein mRNA Translation in H4 Neuroglioblastoma Cells. [Related pubchem assays: 1827 (Project Summary), 1813 (Primary HTS)]; assay type: functional
Streptococcus = test: Group A Streptococcus viability loss, dose response, counter-screen for streptokinase expression inhibitor project, luminescence, BacTiterGlo (AID 1915); assay type: functional, organism-based;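 also: potency for reduction of bacterial viability or growth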
[11] = inhibitors of firefly luciferase expression or activity, dose response, H4 neuroglioma cells, luminescence (AID 1990); assay type: functional, cell-based
[12] = biological target: Neuropeptide Y receptor type 2 (Homo sapiens, UniProt P49146); test: Fluorescence-based cell-based high-throughput dose response assay for agonists of NPY-Y2. [Related pubchem assays: 1703 (Screening assay (CNGC inhibitors).), 1359 (Screening assay (NPY-Y2 potentiators or agonists).), 1304 (Screening assay (NPY-Y1 potentiators or agonists).), 1710 (Screening assay (NPY-Y2 agonists).), 1791 (Summary AID.)]; assay type: functional
Sequence of Neuropeptide Y receptor type 2 (P49146 whole entry): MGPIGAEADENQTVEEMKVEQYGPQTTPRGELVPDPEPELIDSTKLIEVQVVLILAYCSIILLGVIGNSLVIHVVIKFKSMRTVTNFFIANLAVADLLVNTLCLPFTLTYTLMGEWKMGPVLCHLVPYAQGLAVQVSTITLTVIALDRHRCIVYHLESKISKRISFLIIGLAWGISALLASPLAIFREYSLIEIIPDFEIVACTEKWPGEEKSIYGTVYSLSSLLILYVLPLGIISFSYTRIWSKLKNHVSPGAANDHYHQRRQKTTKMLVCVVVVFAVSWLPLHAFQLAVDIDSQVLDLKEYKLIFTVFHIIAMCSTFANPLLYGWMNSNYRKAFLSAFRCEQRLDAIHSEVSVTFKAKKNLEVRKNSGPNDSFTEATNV

HEK293 = test: Fluorescence-based counterscreen for potentiators or agonists of NPY-Y2: cell-based high-throughput dose response assay to identify inhibitors of cyclic nucleotide gated ion channel (CNGC) activity. In this assay, the parental HEK293 cell line transfected with a cyclic-nucleotide gated ion channel (CNGC)-based cAMP sensor is used to measure inhibition of isoproterenol-induced CNGC activity by test compound.; assay type: functional; conditions: Homo sapiens;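 also: stimulus is 1 µM isoproterenol at EC100 plus PDE inhibitor Ro 20-1724 at 25 µM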
[13] = biological target: Neuropeptide Y receptor type 1 (Homo sapiens, UniProt P25929); test: Fluorescence-based counterscreen for agonists of NPY-Y2: cell-based high-throughput dose response assay for agonists of NPY-Y1.; assay type: functional
Sequence of Neuropeptide Y receptor type 1 (P25929 whole entry): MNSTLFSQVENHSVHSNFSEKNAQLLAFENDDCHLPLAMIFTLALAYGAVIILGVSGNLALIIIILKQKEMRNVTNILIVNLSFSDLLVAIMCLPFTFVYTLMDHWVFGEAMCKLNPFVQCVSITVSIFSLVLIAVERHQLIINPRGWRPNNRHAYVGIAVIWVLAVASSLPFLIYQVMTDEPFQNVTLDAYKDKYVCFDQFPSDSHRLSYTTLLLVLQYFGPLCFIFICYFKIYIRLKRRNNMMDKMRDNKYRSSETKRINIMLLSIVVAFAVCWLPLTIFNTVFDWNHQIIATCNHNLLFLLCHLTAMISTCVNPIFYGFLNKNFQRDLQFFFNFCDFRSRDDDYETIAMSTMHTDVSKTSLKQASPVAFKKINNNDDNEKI

Protein skinhead-1 = biological target: T3, Protein skinhead-1 (Caenorhabditis elegans, UniProt P34707); assay type: functional
T3 sequence (P34707 whole entry): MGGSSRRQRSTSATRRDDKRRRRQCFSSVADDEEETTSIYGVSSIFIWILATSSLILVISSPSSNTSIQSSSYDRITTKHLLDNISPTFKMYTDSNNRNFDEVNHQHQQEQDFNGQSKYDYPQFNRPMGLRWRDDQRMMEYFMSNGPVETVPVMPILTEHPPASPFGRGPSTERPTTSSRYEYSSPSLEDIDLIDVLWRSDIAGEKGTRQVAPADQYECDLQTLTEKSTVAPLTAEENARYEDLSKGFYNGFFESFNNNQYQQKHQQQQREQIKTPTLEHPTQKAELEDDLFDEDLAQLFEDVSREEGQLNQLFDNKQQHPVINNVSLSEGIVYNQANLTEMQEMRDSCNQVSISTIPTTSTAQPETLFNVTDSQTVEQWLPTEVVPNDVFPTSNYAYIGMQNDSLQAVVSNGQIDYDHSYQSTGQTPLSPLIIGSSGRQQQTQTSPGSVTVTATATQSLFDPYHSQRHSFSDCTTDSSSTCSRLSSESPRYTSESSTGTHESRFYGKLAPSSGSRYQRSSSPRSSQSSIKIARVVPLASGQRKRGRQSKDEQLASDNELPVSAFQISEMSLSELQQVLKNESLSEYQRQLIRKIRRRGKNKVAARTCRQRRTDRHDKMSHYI

With `COc1cccc(N2CCN(S(=O)(=O)c3ccc(-c4cnc(C5CC5)o4)cc3)CC2)c1` the IC50 [1] was > 111 µM (not active) and the IC50 [2] was 6.91 µM (active).

In the case of `O=C1C(Cl)=C(Cl)C(=O)N1c1cccc(Cl)c1`, the IC50 (Bcl-2-related protein A1 [3]) is reported as 3.41 µM (active), the IC50 [4] is reported as > 100 µM (not active) and the IC50 (Bcl-2-related protein A1 [5]) is reported as 5.17 µM (active).

In the case of `COc1ccc(C2CC(C(F)(F)F)n3nc(C(=O)Nc4ccc5c(c4)OCO5)cc3N2)cc1` (stereo not given), the IC50 (Coagulation factor XII) is reported as > 50 µM (inactive), the IC50 [1] is reported as > 111 µM (not active) and the IC50 [2] is reported as 9.48 µM (active).

In the case of `CCc1ccc2c(c1)C1(NN=C(c3cccc4ccccc34)S1)C(=O)N2` (stereo not given), the EC50 [6] is reported as < 0.1 µM (active), the EC50 (cells) is reported as 0.875 µM (active) and the EC50 [7] is reported as < 0.06 µM (active). The EC50 [8] was 2.85 µM (inconclusive), the EC50 [9] was 1.25 µM (active) and the EC50 [10] was < 0.1 µM (active). The EC50 (Streptococcus) was 0.706 µM (active) and the EC50 [11] was 38.5 µM (active).

With `CCSc1nnc(NC(=O)CCNS(=O)(=O)c2cc(Br)cnc2N)s1` the EC50 [12] was 13.7 µM (not active), the EC50 (HEK293) was 9.32 µM (active) and the EC50 [13] was 11.7 µM (not active).

In the case of `CC(C)CC(NC(=O)c1ccc(Cl)cc1)C(=O)OCc1cc([N+](=O)[O-])cc2c1OCOC2` (stereo not given), the EC50 [12] is reported as > 35.4 µM (not active), the EC50 (HEK293) is reported as > 35.4 µM (not active) and the EC50 [13] is reported as > 35.4 µM (not active).

For `Clc1ccc(-n2nnc(-c3cccnc3)n2)cc1Cl`, the IC50 (Bcl-2-related protein A1 [3]) was > 100 µM (not active), the IC50 (Protein skinhead-1) was 57.3 µM (inactive) and the IC50 (Bcl-2-related protein A1 [5]) was > 100 µM (not active).
